Tested on: mouse Sp2/0 cells
Test: CTL assay: 51Cr release from target Sp2/0 cells treated with antibody fragments or peptide, with p53 peptide-specific CTLs
Assay type: cell-based
Details: Sp2/0 target cells, treated 4 hours at 37° C. with antibody fragment dilutions or 10 μg/ml peptide

## KYICNSSCM (p53 CTL reactive peptide) [p53 peptide only]
effector:target 5:1
  % Specific 51Cr Release at E/T Ratio 5:1: 41%
effector:target 10:1
  % Specific 51Cr Release at E/T Ratio 10:1: 57%
effector:target 20:1
  % Specific 51Cr Release at E/T Ratio 20:1: 46%

Source: US20060099216A1, “Peptide delivery” (Biovation Limited, priority 1994, published 2006)
